Tested on: coenzyme-linked glucose dehydrogenase
Experiment: Inhibitor test with 1,10-phenanthroline
Assay type: biochemical, Aspergillus terreus
Description: 1.0 ml of 0.1 M potassium phosphate buffer (pH 7.0), 1.0 ml of 1.0 M D-glucose, 0.1 ml of 3 mM 2,6-dichlorophenolindophenol (hereinafter, referred to as DCIP), 0.2 ml of 3 mM 1-methoxy-5-methylphenazium methylsulfate, and 0.65 ml of water are placed in a 3 ml quartz cell (with an optical path length of 1 cm), and then the cell is placed in a spectrophotometer equipped with a thermostat cell holder. After the cell is incubated at 37° C. for five minutes, 0.05 ml of an enzyme liquid is added thereto, followed by measuring absorbance change (αABS/min) of DCIP at 600 nm. The mol-absorption coefficient of DCIP at pH 7.0 is defined to be 16.3×10^3 cm^−1M^−1. Since one unit of the enzyme activity is substantially equivalent to the enzyme activity that reduces 1 μmol of DCIP per minute, the enzyme activity is determined by absorbance change in accordance with the following formula. To the reaction system in the activity measurement method-1, 1,10-phenanthroline dissolved in methanol so that each final concentration was 1 mM, 5 mM, 10 mM, 25 mM, or 50 mM, was added, followed by measuring the activity of the purified enzymes 1 to 6 by the activity measurement method-1. […] As a control, methanol was added to the reaction system in the activity measurement method-1 at the final concentration of 10% (v/v), and then the activity was measured by the activity measurement method-1. […]

inhibition ratio (1,10-phenanthroline at final concentration of 1 mM or more, purified enzymes 1 to 6, 10% (v/v) methanol): ≥ 60%
inhibition of the activity by 1,10-phenanthroline (GLD according to the invention, general characteristics, concentration not given): At least 60%
Compound: c1cnc2c(c1)ccc1cccnc12 [1,10-phenanthroline]

— patent US9328372B2, “Coenzyme-linked glucose dehydrogenase and polynucleotide encoding the same” (Ikeda Food Research Co., Ltd., priority 2005, dated 2016)
